Here are results for three compounds from patent US9961899B2, “Nematicidal aqueous suspension concentrate compositions” (Monsanto Technology LLC, priority 2012, dated 2018).

Holding throughout (assay type): physicochemical
Data set [1] is described as follows: Mechanical pressure analysis of polymorphs (CARVER press, XRD). To be noted: approximately 15,000 psi for approximately 20 seconds. As for the experimental part:
Batches of 3-phenyl-5-(thiophen-2-yl)-1,2,4-oxadiazole polymorphic Forms I and II were placed in a CARVER press and compressed at approximately 15,000 psi for approximately 20 seconds in two separate experiments. XRD analysis was performed on the samples. The resulting XRD pattern matched the starting material in both experiments, as shown in FIGS. 5A and 5B for Forms I and II, respectively. […] The Form II used in this experiment was obtained by recrystallization from the melt of Form I, as described in Example 14, above.

A short description of data set [2]: Grinding analysis of polymorphs (ball mill, XRD). As to conditions: ball mill 2 minutes at 4800 oscillations per minute. The method, then:
Batches of 3-phenyl-5-(thiophen-2-yl)-1,2,4-oxadiazole polymorphic Forms I and II were ground using a CRESCENT WIG-L-BUG ball mill for 2 minutes at 4800 oscillations per minute (3.2 m/s) in two separate experiments. […] The Form II used in this experiment was obtained by recrystallization from the melt of Form I, as described in Example 14, above, […]

The nature of data set [3]: Storage stability of polymorphs (humidity chambers / ambient, XRD). The source says: To determine the storage stability and/or hydrate formation of 3-phenyl-5-(thiophen-2-yl)-1,2,4-oxadiazole Form I material during storage at ambient conditions, samples were monitored in two static humidity chambers. […] Solutions of saturated potassium chloride (84% RH) and sodium chloride (75% RH) salts at ambient temperature were used.

Data set [4] can be described thus: Estimation of polymorph transition temperature from DSC data. As to conditions: calculated from DSC thermal data. As for the experimental part:
Polymorphic Forms I and II of 3-phenyl-5-(thiophen-2-yl)-1,2,4-oxadiazole, as well as a 50/50 mixture thereof, were analyzed by DSC at a slow heating rate of 2° C. per minute, with similar sample sizes. […] Form II has a higher melting temperature and a lower enthalpy of fusion. […] FIGS. 9A through 9C show the relevant DSC thermograms for Form I, Form II, and a mixture of Forms I and II, respectively.
The thermal data using the procedure set forth above was used to calculate an approximate value for the transition temperature of conversion of Forms I and II, resulting in an estimated transition temperature value of 102° C.

For the compound `c1ccc(-c2noc(-c3cccs3)n2)cc1` [Form I, 3-phenyl-5-(thiophen-2-yl)-1,2,4-oxadiazole], the “polymorphic change under mechanical pressure (XRD)” value in data set [1] is on record as “did not reveal any changes in the polymorphic form”. In data set [2], the “polymorphic transformation on grinding (XRD)” value is listed as “no transformation was observed”. Further, in data set [3] (75 and 84% RH, ambient temperature, 4 weeks), the “storage stability / hydrate formation (XRD)” value is “does not form a hydrate and appears to be thermodynamically stable over time”.
As for `c1ccc(-c2noc(-c3cccs3)n2)cc1` [Ia-i, 3-phenyl-5-(thiophen-2-yl)-1,2,4-oxadiazole], in data set [4], the “transition temperature between Forms I and II” value was “approximately 102 °C”.
For `c1ccc(-c2noc(-c3cccs3)n2)cc1` [Form II, 3-phenyl-5-(thiophen-2-yl)-1,2,4-oxadiazole], the “polymorphic change under mechanical pressure (XRD)” value in data set [1] is reported as “did not reveal any changes in the polymorphic form”. The “polymorphic transformation on grinding (XRD)” value in data set [2] is on record as “transformed to Form I”. In data set [3] (scintillation vial, ambient conditions, approximately 6 days), the “storage stability (XRD)” value was “showed signs of transformation to Form I”.
